Experimental findings from patent US20040044304A1, “Local drug delivery using photosensitizer-mediated and electromagnetic radiation enhanced vascular permeability” (priority 2002, published 2004) are described below.

This assay has as its system blood vessels and tissue within region of irradiation. The assay can be described thus: Quantitation of FITC-Dextran or TRITC-Dextran fluorescence in blood vessels and tissue (method of Brunner et al.). The following applies: for Fluorecence intensity, Tissue, Baseline / Fluorecence intensity, Vessel, Baseline: prior to photodynamic treatment and probe. The assay is classed as in vivo, mice of strain C3H. As for the experimental part:
At varying time points following the photodynamic activation of MRV6401 or SnET2, a total volume of 0.1 ml of either FITC-Dextran or TRITC-Dextran (obtained from Sigma Scientific, PO Box 14508, St. Louis, Mo., 63178, USA) was administered via the i.v. tail vein route. […] No. FD-2000s) or of molecular weight 150 kD (Sigma Cat. No. FD-150s), and the TRITC-Dextran solution was of molecular weight 155 kD (Sigma Cat. No. T1287). Prior to use, the dextrans were suspended in sterile 5% dextrose in water to a final concentration of 5% weight:volume. In all cases, a total volume of 0.1 ml of the […] solution was administered. The time of administration and the molecular weight of the various dextrans that were injected were as described in Table 6. In some animals the vascular permeability was determined 1-60 minutes following the completion of light irradiation using a dextran probe labeled with either FITC or TRITC, which was then followed 24 hours later by determination using a probe labeled with the other (opposite) fluorescent molecule. That is, if FITC was used immediately following irradiation, TRITC was used 24 hours later, and vice versa. To visualize the fluorescence emitted from the FITC-Dextrans, the Leitz Ploemopak L2 cube (Cat. No. 513-420, E. Leitz Inc., Rockleigh, N.J., 07647, USA) was used. This filter cube was fitted with a BP 450-490 (450 nm-490 nm band pass) excitation filter, the RKP 510 long pass dichroic mirror and a BP 525/20 (525±10 nm) band pass barrier filter. To visualize the fluorescence emitted from the TRITC-Dextrans, the Leitz Ploemopak N2 cube (Cat. No. 513-609, E. Leitz Inc., Rockleigh, N.J., 07647, USA) was used. This filter cube was fitted with a BP 530-560 (530 nm-560 nm band pass) excitation filter, the RKP 580 long pass dichroic mirror and the LP 580 (580 nm long pass) barrier filter. The spectral characteristics of the filters in the L2 and N2 cubes were such that in animals that were injected with both FITC- and TRITC-Dextran (see Table 6), there was no fluorescence “bleed-through” from the other fluorophore. That is, when visualizing TRITC-Dextran there was no fluorescent signal from FITC-Dextran that was present in the field. Similarly, when visualizing FITC-Dextran, there was no fluorescent signal from TRITC-Dextran that was present in the field. The quantitation of the level of either FITC-Dextran or TRITC-Dextran fluorescence in various regions of the chambers was undertaken using a minor modification of a previously described method [J. Brunner, F. Krummenaeur and H -A Lehr, “Quantification of video-taped images in microcirculation research using inexpensive imaging software” (Adobe Photoshop), Microcirculation, Vol. 7, pp 103-107, 2000]. In the studies described by Brunner et al., the imaging software utilized to quantitate the levels of fluorescence intensity in defined regions of interest within the window chamber was Adobe Photoshop. The software utilized for the studies described below was Image-Pro Plus (Media Cybernetics, 8484 Georgia Avenue, Silver Spring, Md. 20910, USA). In all other respects, the analysis undertaken below was the same as that described by Brunner et al. The level of fluorescence that was determined in both intra-vascular and extra-vascular regions using this method was directly proportional to the amount of the fluorescent labeled dextran in that region (Brunner et al., 2000).

Setting [1] is: 155 kD TRITC-Dextran, SnET2 0.75 mg/kg i.v., green 530 nm-560 nm 225 J/cm^2, time after TRITC-Dextran administration, region of irradiation, 0.75 mg/kg.
Where [2] appears, read: Animal #12, 2,000 kD FITC-Dextran, MRV6401 0.05 mg/kg i.v., red 660 nm-680 nm 8 J/cm^2.
Where [3] appears, read: Animal #12, 2,000 kD FITC-Dextran, MRV6401 0.05 mg/kg i.v., red 660 nm-680 nm 8 J/cm^2, time after Dextran administration.
The mark [4] stands for this setting: Animal #13, 155 kD TRITC-Dextran, MRV6401 0.05 mg/kg i.v., red 660 nm-680 nm 8 J/cm^2.
Where [5] appears, read: Animal #13, 155 kD TRITC-Dextran, MRV6401 0.05 mg/kg i.v., red 660 nm-680 nm 8 J/cm^2, time after Dextran administration.

Each structure is given as a SMILES string. Values joined by “and” are separate entries in the source; they are usually repeats but may differ in a detail not shown here. Equal values may be shown once. Marks after values point to notes of the source that are not given here.

For `CCOC(=O)C1=Cc2c3nc(cc4nc(cc5[n-]c(cc6[n-]c2c(C)c6CC)c(C)c5CC)C(C)=C4CC)[C@@H](C)[C@]13CC.[Cl-].[Cl-].[Sn]` (racemic) [SnET2, tin ethyl etiopurpurin], the “Fluorecence intensity, Tissue, Baseline” value (155 kD TRITC-Dextran, SnET2 0.75 mg/kg i.v., green 530 nm-560 nm 225 J/cm^2, mean ± 1 SD of three readings, 0.75 mg/kg) was 30.5 ± 1.4 and 26.5 ± 0.2. Further, under setting [1], the “Fluorecence intensity, Tissue, 8 min” value is 82.9 ± 1.9 and 73 ± 2.0; the “Fluorecence intensity, Tissue, 20 min” value is 110 ± 2.4 and 120 ± 4.4; the “Fluorecence intensity, Tissue, 1 hr” value was 175.4 ± 3.3 and 127.9 ± 5.5; the “Fluorecence intensity, Tissue, 24 hr” value is 196.4 ± 4.2 and 155 ± 7.1. For the same compound, under setting [1], the “Fluorecence intensity, Vessel, 8 min” value was 72 ± 1.7 and 105 ± 3.1; the “Fluorecence intensity, Vessel, 20 min” value was 90.6 ± 5.8 and 111 ± 2.7; the “Fluorecence intensity, Vessel, 1 hr” value is 97.7 ± 6.2 and 134 ± 10; the “Fluorecence intensity, Vessel, 24 hr” value is 55 ± 3.1 and 78 ± 1.5.
Turning to `C=Cc1c(C)c2[n]3c1=CC1=NC(=Cc4c(C)c5c([n]4[In]3[Cl])C(=C3N=C(C=2)[C@@H](C)[C@@H]3CCC(=O)OC)CC5=O)C(CC)=C1C` [MV6401, indium methyl pyropheophorbide], under setting [2], the “Fluorecence intensity, Tissue, Baseline” value was 50 ± 1.8 and the “Fluorecence intensity, Vessel, Baseline” value was 50 ± 1.6^c. Under setting [3], the “Fluorecence intensity, Tissue, 10 min” value was 91.9 ± 4.4; the “Fluorecence intensity, Tissue, 1 hr” value was determined as 121.1 ± 2.2; the “Fluorecence intensity, Tissue, 24 hr” value was determined as 135 ± 6.6; the “Fluorecence intensity, Vessel, 10 min” value was 79.1 ± 1.95. Moreover, under setting [3], the “Fluorecence intensity, Vessel, 1 hr” value was 83.5 ± 1.9 and the “Fluorecence intensity, Vessel, 24 hr” value was found to be 78.9 ± 2.0. Further, under setting [4], the “Fluorecence intensity, Tissue, Baseline” value came to 59.5 ± 1.87 and the “Fluorecence intensity, Vessel, Baseline” value is given as 56.6 ± 1.24. For the same compound, under setting [5], the “Fluorecence intensity, Tissue, 10 min” value is recorded as 119.7 ± 1.96; the “Fluorecence intensity, Tissue, 1 hr” value was found to be 122.9 ± 2.6; the “Fluorecence intensity, Tissue, 24 hr” value is 156 ± 1.49; the “Fluorecence intensity, Vessel, 10 min” value stood at 182.9 ± 2.6. In addition, under setting [5], the “Fluorecence intensity, Vessel, 1 hr” value was 168.7 ± 2.5 and the “Fluorecence intensity, Vessel, 24 hr” value stood at 46 ± 1.4.
